Blank lines part the entries; values can stand above or below the compound they belong to. Calls of active or inactive are those of the source. The rule behind the calls is not given here.
Experiments:
Hexokinase-4 [1] = target: T1, Hexokinase-4 (Homo sapiens, UniProt P35557); assay: Activation of human glucokinase expressed in Escherichia coli BL21(DE3) coexpressing G6PDH by spectrometry
T1 sequence (P35557 whole entry): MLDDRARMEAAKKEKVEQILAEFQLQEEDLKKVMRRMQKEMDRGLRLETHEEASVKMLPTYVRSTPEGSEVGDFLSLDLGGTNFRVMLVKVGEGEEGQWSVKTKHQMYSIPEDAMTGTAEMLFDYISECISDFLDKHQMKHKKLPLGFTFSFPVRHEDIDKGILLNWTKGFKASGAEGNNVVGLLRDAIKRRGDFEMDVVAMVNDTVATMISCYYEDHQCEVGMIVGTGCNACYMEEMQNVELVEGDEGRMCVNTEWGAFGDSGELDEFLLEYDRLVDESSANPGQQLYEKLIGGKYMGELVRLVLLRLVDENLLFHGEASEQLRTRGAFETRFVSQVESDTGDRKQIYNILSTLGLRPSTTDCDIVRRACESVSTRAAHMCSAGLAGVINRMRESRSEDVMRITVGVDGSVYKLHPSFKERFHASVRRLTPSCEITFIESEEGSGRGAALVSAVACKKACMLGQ

Mus musculus [2] = assay: Antihyperglycemic activity in diabetic C57BL/6J ob/ob mouse assessed as decrease in blood glucose at 50 mg/kg, po administered as single dose measured after 180 mins relative to control; assay type: functional, organism-based; parameters: dose 50 mg/kg
Hepatocyte = assay: Induction of glycogen synthesis in Sprague-Dawley rat hepatocytes at 20 uM after 4 hrs relative to control; assay type: functional
Mus musculus [3] = assay: Hypoglycemic activity in non-diabetic ICR mouse assessed as decrease in blood glucose at 3 mg/kg, po administered as single dose measured after 30 mins relative to control; assay type: functional; parameters: scale not given: the % may be the effect or the level left
Mus musculus [4] = assay: Hypoglycemic activity in non-diabetic ICR mouse assessed as decrease in blood glucose at 10 mg/kg, po administered as single dose measured after 30 mins relative to control; assay type: functional; parameters: scale not given: the % may be the effect or the level left
Mus musculus [5] = assay: Hypoglycemic activity in non-diabetic ICR mouse assessed as decrease in blood glucose at 50 mg/kg, po administered as single dose measured after 30 mins relative to control; assay type: functional; parameters: scale not given: the % may be the effect or the level left
Mus musculus [6] = assay: Hypoglycemic activity in non-diabetic ICR mouse assessed as decrease in blood glucose at 3 mg/kg, po administered as single dose measured after 120 mins relative to control; assay type: functional, organism-based; parameters: dose 3 mg/kg
Mus musculus [7] = assay: Hypoglycemic activity in non-diabetic ICR mouse assessed as decrease in blood glucose at 10 mg/kg, po administered as single dose measured after 240 mins relative to control; assay type: functional, organism-based; parameters: dose 10 mg/kg
Mus musculus [8] = assay: Hypoglycemic activity in non-diabetic ICR mouse assessed as decrease in blood glucose at 50 mg/kg, po administered as single dose measured after 240 mins relative to control; assay type: functional, organism-based; parameters: dose 50 mg/kg
Mus musculus [9] = assay: Antihyperglycemic activity in diabetic C57BL/6J ob/ob mouse assessed as decrease in blood glucose at 20 mg/kg, po administered as single dose measured after 120 mins relative to control; assay type: functional, organism-based; parameters: dose 20 mg/kg
Mus musculus [10] = assay: Antihyperglycemic activity in diabetic C57BL/6J ob/ob mouse assessed as decrease in blood glucose at 20 mg/kg, po administered as single dose measured after 180 mins relative to control; assay type: functional, organism-based; parameters: dose 20 mg/kg
Mus musculus [11] = assay: Antihyperglycemic activity in diabetic C57BL/6J ob/ob mouse assessed as decrease in blood glucose at 50 mg/kg, po administered as single dose measured after 60 mins relative to control; assay type: functional, organism-based; parameters: dose 50 mg/kg
Mus musculus [12] = assay: Antihyperglycemic activity in diabetic C57BL/6J ob/ob mouse assessed as decrease in blood glucose at 50 mg/kg, po administered as single dose measured after 120 mins relative to control; assay type: functional, organism-based; parameters: dose 50 mg/kg
Hexokinase-4 [13] = target: T2, Hexokinase-4 (Rattus norvegicus, UniProt P17712)
T2 sequence (P17712 whole entry): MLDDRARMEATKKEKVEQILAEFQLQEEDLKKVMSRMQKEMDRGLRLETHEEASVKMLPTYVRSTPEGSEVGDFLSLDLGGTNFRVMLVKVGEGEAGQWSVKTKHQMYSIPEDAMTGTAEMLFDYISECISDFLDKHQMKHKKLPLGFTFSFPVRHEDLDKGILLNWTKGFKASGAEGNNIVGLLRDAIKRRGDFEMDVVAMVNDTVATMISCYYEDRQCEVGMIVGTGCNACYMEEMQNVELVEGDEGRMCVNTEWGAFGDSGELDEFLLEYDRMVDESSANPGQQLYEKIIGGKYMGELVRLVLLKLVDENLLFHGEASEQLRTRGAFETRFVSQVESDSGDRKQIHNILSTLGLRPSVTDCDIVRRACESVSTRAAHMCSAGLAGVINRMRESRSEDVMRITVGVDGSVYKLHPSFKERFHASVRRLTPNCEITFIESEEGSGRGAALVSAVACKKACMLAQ
Description: Induction of glucokinase-mediated 2-deoxy-D-[3H]glucose uptake in Sprague-Dawley rat hepatocytes after 4 hrs by liquid scintillation countingl

[14] = Oral bioavailability in rat; assay type: ADME, organism-based; conditions: in vivo
[15] = Oral bioavailability in dog; assay type: ADME, organism-based, Canis lupus familiaris; conditions: in vivo

SMILES: CS(=O)(=O)c1ccc(C(CC2CCOCC2)C(=O)Nc2nc3cc(F)ccc3s2)cc1 (stereo unspecified)
EC50 (Hexokinase-4 [1]): Not Active

SMILES: O=C(Nc1nc2c(s1)CCC2)C(CC1CCOCC1)c1ccc(S(=O)(=O)C2CC2)cc1 (stereo unspecified)
EC50 (Hexokinase-4 [1]; read-out: EC50): 79 nM

SMILES: COc1ccc(-c2csc(NC(=O)C(CC3CCOCC3)c3ccc(S(C)(=O)=O)cc3)n2)cc1 (stereo unspecified)
EC50 (Hexokinase-4 [1]; read-out: EC50): 1040 nM

SMILES: CS(=O)(=O)c1ccc(C(CC2CCOCC2)C(=O)Nc2nc(-c3ccccc3)cs2)cc1 (stereo unspecified)
EC50 (Hexokinase-4 [1]; read-out: EC50): 724 nM

SMILES: O=C1N=C(NC(=O)C(CC2CCOCC2)c2ccc(S(=O)(=O)C3CC3)cc2)S/C1=C\c1ccccc1 (stereo unspecified)
EC50 (Hexokinase-4 [1]): Not Active

SMILES: CC(C)c1csc(NC(=O)[C@H](CC2CCOCC2)c2ccc(S(=O)(=O)C3CC3)cc2)n1
Activity (Mus musculus [2]): Active
Activity (Hepatocyte): 83.7%
Activity (Mus musculus [3]): 12.7%
Activity (Mus musculus [4]): 33.9%
Activity (Mus musculus [5]): 40.7%
Activity (Mus musculus [6]): Active
Activity (Mus musculus [7]): Active
Activity (Mus musculus [8]): Active
Activity (Mus musculus [9]): Active
Activity (Mus musculus [10]): Active
Activity (Mus musculus [11]): Active
Activity (Mus musculus [12]): Active
EC50 (Hexokinase-4 [13]): 26 nM

SMILES: CC(C)(C)c1csc(NC(=O)C(CC2CCOCC2)c2ccc(S(C)(=O)=O)cc2)n1 (stereo unspecified)
EC50 (Hexokinase-4 [1]; read-out: EC50): 2930 nM

SMILES: COC[C@H](C)Oc1cc(O[C@@H](C)Cc2ccccc2)cc(C(=O)Nc2ccc(C(=O)O)cn2)c1
bioavailability [14]: 90%
bioavailability [15]: 100%

SMILES: CC(C)Cc1csc(NC(=O)C(CC2CCOCC2)c2ccc(S(C)(=O)=O)cc2)n1 (stereo unspecified)
EC50 (Hexokinase-4 [1]; read-out: EC50): 355 nM

SMILES: CS(=O)(=O)c1ccc(C(CC2CCOCC2)C(=O)Nc2nc(-c3ccc(F)cc3)cs2)cc1 (stereo unspecified)
EC50 (Hexokinase-4 [1]; read-out: EC50): 1180 nM

SMILES: CC(C)c1csc(NC(=O)[C@H](CC2CCOCC2)c2ccc(S(C)(=O)=O)cc2)n1
EC50 (Hexokinase-4 [1]; read-out: EC50): 330 nM

SMILES: CC(C)c1csc(NC(=O)C(CC2CCOCC2)c2ccc(S(C)(=O)=O)cc2)n1 (stereo unspecified)
EC50 (Hexokinase-4 [1]; read-out: EC50): 310 nM

Second part, the compound after the results:

EC50 (Hexokinase-4 [1]; read-out: EC50): 2860 nM
SMILES: Cc1nc(NC(=O)C(CC2CCOCC2)c2ccc(S(C)(=O)=O)cc2)sc1C (stereo unspecified)

EC50 (Hexokinase-4 [1]; read-out: EC50): 1000 nM
SMILES: CCc1csc(NC(=O)C(CC2CCOCC2)c2ccc(S(C)(=O)=O)cc2)n1 (stereo unspecified)

EC50 (Hexokinase-4 [1]; read-out: EC50): 1690 nM
SMILES: CS(=O)(=O)c1ccc(C(CC2CCOCC2)C(=O)Nc2nccs2)cc1 (stereo unspecified)

EC50 (Hexokinase-4 [1]; read-out: EC50): 158 nM
SMILES: C=C(C)c1csc(NC(=O)C(CC2CCOCC2)c2ccc(S(=O)(=O)C3CC3)cc2)n1 (stereo unspecified)

EC50 (Hexokinase-4 [1]): Not Active
SMILES: Cc1nc(NC(=O)C(CC2CCOCC2)c2ccc(S(C)(=O)=O)cc2)sc1C(C)C (stereo unspecified)

EC50 (Hexokinase-4 [1]; read-out: EC50): 320 nM
SMILES: CC(C)c1nc(NC(=O)C(CC2CCOCC2)c2ccc(S(=O)(=O)C3CC3)cc2)sc1Br (stereo unspecified)

EC50 (Hexokinase-4 [1]; read-out: EC50): 2860 nM
SMILES: CN1CCc2nc(NC(=O)C(CC3CCOCC3)c3ccc(S(=O)(=O)C4CC4)cc3)sc2C1 (stereo unspecified)

EC50 (Hexokinase-4 [1]; read-out: EC50): 4680 nM
SMILES: O=C1CSC(NC(=O)C(CC2CCOCC2)c2ccc(S(=O)(=O)C3CC3)cc2)=N1 (stereo unspecified)

EC50 (Hexokinase-4 [1]): Not Active
SMILES: CC(C)/C=C1\SC(NC(=O)C(CC2CCOCC2)c2ccc(S(=O)(=O)C3CC3)cc2)=NC1=O (stereo unspecified)

EC50 (Hexokinase-4 [1]): Not Active
SMILES: CC(C)c1nc(NC(=O)C(CC2CCOCC2)c2ccc(S(=O)(=O)C3CC3)cc2)sc1I (stereo unspecified)

EC50 (Hexokinase-4 [1]; read-out: EC50): 1350 nM
SMILES: CS(=O)(=O)c1ccc(C(CC2CCOCC2)C(=O)Nc2nc(C3CC3)cs2)cc1 (stereo unspecified)

Source: ChEMBL document CHEMBL1165956, “Design, synthesis, and pharmacological evaluation of N-(4-mono and 4,5-disubstituted thiazol-2-yl)-2-aryl-3-(tetrahydro-2H-pyran-4-yl)propanamides as glucokinase activators” (Bioorg Med Chem, 2010)
